Experimental data taken from patent US20240299335A1, “SHELF-STABLE FORMULATIONS OF BENZOYL PEROXIDE AND METHODS OF PRODUCING SAME” (BLUE HILL TECHNOLOGIES LLC, priority 2022, published 2024).
“Also recorded” adds a separate entry of the source.

Assays:
Format in all cases: physicochemical
[1] = Effect of antioxidants on benzene levels in FDA-approved benzoyl peroxide drug products (headspace GC-MS); conditions: antioxidant added to commercial drug products; 50° C. for 2 days; FIG. 5
Excerpt: (§1) The method USP <467> Residual Solvents Procedure A was modified from flame ionization detection (FID) to mass spectrometry (MS) detection for benzene in benzoyl peroxide products. […] Identification of benzene was based on the retention time matching to certified reference standards and mass spectral m/z matching to benzene.

[2] = Effect of solvents on benzene levels in 10% w/v benzoyl peroxide formulations (headspace GC-MS); conditions: 10% benzoyl peroxide in the solvent; 37° C. for 10 days; compared to glycerol or NMP; FIG. 8
Description: as §1
10% w/v benzoyl peroxide formulations were prepared. […] Benzene levels in each formulation were tested at various time points according to the protocols described in Example 1.

[3] = Effect of antioxidants on benzene levels in 10% w/v benzoyl peroxide formulations (headspace GC-MS); conditions: 10% w/v benzoyl peroxide plus antioxidant
Excerpt: Agilent 7890B Gas Chromatography (GC) system equipped with 7697A headspace autosampler coupled with 5977B Mass Selective Detector (MS) was used for sample analysis, and a DB-Select 624 UI, 60 m×0.32 mm×1.8 μm GC column (Agilent Technology, Santa Clara, CA) was used to separate benzene from other compounds. Dimethyl sulfoxide (DMSO, GC Headspace Grade) was used for sample preparation (Thermo Fisher Scientific, Waltham, MA). All certified reference standards, solution, and buffer reagents including sodium citrate dihydrate, citric acid, tris, and glycerol were sourced from Sigma-Aldrich, St. Louis, MO.
For benzoyl peroxide stability studies in glycerol, benzoyl peroxide was prepared in a stock suspension of 20% w/v in glycerol and mixed 1:1 with 20% w/v suspensions or v/v solutions of antioxidants in glycerol. For pH experiments, the same stock suspension of benzoyl peroxide was mixed 1:1 with a 50% glycerol solution with 200 mM buffering agent (Citrate buffer pH 3.0, Tris Buffer pH 7.0, or Tris Buffer pH 9.0) for final 75% glycerol solution. The final volume of all reactions was 100 μL in GC headspace vials with 10% solution benzoyl peroxide (10 mg) and 10% antioxidant or 100 mM buffering agent. Vials were immediately crimp sealed for incubation. For analysis, 4.9 mL of DMSO was added to make up the final volume to approximate 5 mL, crimp sealed, and gently vortexed to mix.
Benzene standard was diluted in DMSO for an 11-point calibration ranging from 10 ng/vial to 100 μg/vial. The coefficient of determination R^2 were greater than 0.999. Five (5) mL of DMSO was used for negative control samples.
Benzoyl peroxide products in original packaging were incubated for up to one month at 25° C., 37° C., or 50° C. and sampled periodically. Benzoyl peroxide and products with antioxidant additions or buffering agent additions were prepared and incubated in crimp sealed GC headspace vials.
The method USP <467> Residual Solvents Procedure A was modified from flame ionization detection (FID) to mass spectrometry (MS) detection for benzene in benzoyl peroxide products. The gas chromatography (GC) methods were also modified to allow shorter run time and the method was validated for addition of up to 500 mg benzoyl peroxide product or […] glycerol. Identification of benzene was based on the retention time matching to certified reference standards and mass spectral m/z matching to benzene. Lower limit of detection (LLOD) was 10 ng (equivalent to 0.02 ppm in hand benzoyl peroxide products) and LLOQ was 25 μg. The measurement uncertainty was determined to be 20%.
10% w/v benzoyl peroxide formulations were prepared. […]

[4] = Benzene levels formed by crystalline benzoyl peroxide on incubation (headspace GC-MS); conditions: incubated at 50° C. for up to 12 days; FIG. 11
Excerpt: as §1

[5] = 37° C. for up to two weeks, FIG. 3
[6] = 50° C. for up to two weeks, FIG. 4

| Structure (SMILES) | levels of benzene formed in two FDA-approved drug products with added antioxidant [1] | levels of benzene formed in the formulations [2] | levels of benzene formed in the formulations [3, 5] | levels of benzene formed in the formulations [3, 6] | other results |
| --- | --- | --- | --- | --- | --- |
| CC(C)(C)c1cc(O)ccc1O [TBHQ, tert-butyl hydroquinone] | reduce the degradation of benzoyl peroxide to benzene | – | – | – | – |
| O [water] | – | most dramatic reduction in, or complete prevention of, benzene levels | – | – | – |
| Cc1cc(C(C)(C)C)c(O)c(C(C)(C)C)c1 [BHT, butylated hydroxytoluene] | reduce the degradation of benzoyl peroxide to benzene | – | reduced the levels of benzene; also recorded: most dramatic reduction | reduced the levels of benzene; also recorded: most dramatic reduction | – |
| O=C(OOC(=O)c1ccccc1)c1ccccc1 [crystalline benzoyl peroxide, benzoyl peroxide] | – | – | – | – | levels of benzene formed [4]: may be protected from forming benzene levels |
| C[S+](C)[O-] [DMSO, dimethylsulfoxide] | – | most dramatic reduction in, or complete prevention of, benzene levels | – | – | – |
| CC(=O)Oc1c(C)c(C)c2c(c1C)CCC(C)(CCC[C@H](C)CCC[C@H](C)CCCC(C)C)O2 (stereo partly drawn) [vitamin E acetate] | – | – | reduced the levels of benzene | reduced the levels of benzene | – |
